Measurements taken from patent US20240101538A1, “PROTEIN-PROTEIN INTERACTION MODULATORS OF AURORA KINASE A AND THEIR USE IN THE PREVENTION AND/OR TREATMENT OF CANCER” (EBERHARD KARLS UNIVERSITÄT TÜBINGEN, priority 2020, published 2024).
Where two headings read alike, the source gives them in different places.

Columns and labels:
NMP53^−/− cells = experiment: Colony formation assay on NMP53^−/− cells; assay type: cell-based, murine; conditions: colony formation assay; for minimal effective concentration: 5 days, read-out: EC (NMP53^−/−); for selectivity for NMP53^−/− cells: NMP53^−/− versus NMCdkn2a^ARF−/− cells
Description: (§1) To evaluate the effect of small molecules equipped with R-spine interacting moieties, the inventors screened a focused library of proprietary p38a MAP-Kinase inhibitors which were equipped with R-spine interacting pharmacophores. To this end, the inventors utilized a screening system as developed in Dauch et al.^2 The screening system is based on colony formation assays of cell lines isolated from Nras-driven, Trp53-deficient murine HCCs, whose development is dependent on MYC (NMP53^−/− cells), as well as Nras-driven, Cdkn2a^ARF-deficient murine HCCs, which develop independently of MYC (NMCdkn2a^ARF−/− cells). Importantly, NMP53^−/− cells are sensitive to AURKA inhibitors, which induce a conformational shift in AURKA, whereas NMCdkn2a^ARF−/− are not sensitive to such compounds.
(§2) For Colony Formation Assays, cells were seeded at a density of 50 000 cells per 6 well and next day treated with a 2-fold dilution series of the indicated compounds or the highest corresponding DMSO concentration as control. After 5 days, the cells were fixed with a 10% formaldehyde solution for 30 min, washed once with water, stained with a 0.5% crystal violet solution for 30 min and washed twice with water. The compounds effective concentration (EC) was determined according to the lowest concentration in the dilution series, that inhibited cell growth substantially. The resulting benzamide containing hit structure 1, with a twofold selectivity towards NMP53^−/− cells (effective concentration on NMP53^−/− cells (EC): 2 μM, EC on Cdkn2a^ARF−/−: 4 μM, FIG. 1), served as the inventors' starting point for further compound development.

NMCdkn2a^ARF−/− cells = experiment: Colony formation assay on NMCdkn2a^ARF−/− cells; assay type: cell-based, murine; conditions: 5 days, read-out: EC (NMCdkn2a^ARF−/−)
Description: as §1, §2

[1] = Mus musculus, 120 h, lowest concentration of 2-fold dilution series that inhibited cell growth substantially

With `CC(=O)Nc1cc(NCc2ccc(-c3cn[nH]c3)cc2)ccc1F` [Compound 2b, N-(5-((4-(1H-pyrazole-4-yl)benzyl)amino)-2-fluorophenyl)acetamide] the minimal effective concentration (NMP53^−/− cells; Mus musculus, 120 h) was greater than 4 µM, the minimal effective concentration (NMCdkn2a^ARF−/− cells; [1]) was greater than 4 µM and the minimal effective concentration (NMCdkn2a^ARF−/− cells; Mus musculus, 120 h) was greater than 4 µM.

`CCn1cc(-c2ccc(CNc3ccc(F)c(NC(=O)CCc4ccco4)c3)cc2)cn1` [Compound 3b, N-(5-((4-(1-ethyl-1H-pyrazole-4-yl)benzyl)amino)-2-fluorophenyl)-3-(furan-2-yl)propanamide] was tested, and the minimal effective concentration (NMP53^−/− cells; [1]) was 0.125 µM, the minimal effective concentration (NMP53^−/− cells; Mus musculus, 120 h) was 0.125 µM and the “selectivity for NMP53^−/− cells” value (NMP53^−/− cells) was “loss of selectivity”. For the same compound, the minimal effective concentration (NMCdkn2a^ARF−/− cells; [1]) was 0.25 µM and the minimal effective concentration (NMCdkn2a^ARF−/− cells; Mus musculus, 120 h) was 0.25 µM.

With `CCCn1cc(-c2ccc(CNc3ccc(F)c(NC(=O)CCc4ccco4)c3)cc2)cn1` [Compound 3c, N-(2-fluoro-5-((4-(1-propyl-1H-pyrazole-4-yl)benzyl)amino)phenyl)-3-(furan-2-yl)propanamide] the minimal effective concentration (NMP53^−/− cells; [1]) was 4 µM, the minimal effective concentration (NMP53^−/− cells; Mus musculus, 120 h) was 4 µM and the “selectivity for NMP53^−/− cells” value (NMP53^−/− cells) was “loss of selectivity”. It also gave a minimal effective concentration (NMCdkn2a^ARF−/− cells; [1]) greater than 4 µM and a minimal effective concentration (NMCdkn2a^ARF−/− cells; Mus musculus, 120 h) greater than 4 µM.

For `CC(C)n1cc(-c2ccc(CNc3ccc(F)c(NC(=O)CCc4ccco4)c3)cc2)cn1` [Compound 3d, N-(2-fluoro-5-((4-(1-isopropyl-1H-pyrazole-4-yl)benzyl)amino)phenyl)-3-(furan-2-yl)propanamide], the minimal effective concentration (NMP53^−/− cells; [1]) was 4 µM, the minimal effective concentration (NMP53^−/− cells; Mus musculus, 120 h) was 4 µM and the “selectivity for NMP53^−/− cells” value (NMP53^−/− cells) was “loss of selectivity”. For the same compound, the minimal effective concentration (NMCdkn2a^ARF−/− cells; [1]) was 4 µM and the minimal effective concentration (NMCdkn2a^ARF−/− cells; Mus musculus, 120 h) was 4 µM.

`CN(C(=O)CCc1ccco1)c1cc(NCc2ccc(-c3cnn(C)c3)cc2)ccc1F` [Compound 4, N-(2-fluoro-5-((4-(1-methyl-1H-pyrazole-4-yl)benzyl)amino)phenyl)-3-(furan-2-yl)-N-methylpropanamide] gave a minimal effective concentration (NMP53^−/− cells; [1]) greater than 4 µM, a minimal effective concentration (NMP53^−/− cells; Mus musculus, 120 h) greater than 4 µM and a minimal effective concentration (NMP53^−/− cells; lowest concentration of 2-fold dilution series that inhibited cell growth substantially) greater than 4 µM. It also gave a minimal effective concentration (NMCdkn2a^ARF−/− cells; [1]) greater than 4 µM and a minimal effective concentration (NMCdkn2a^ARF−/− cells; Mus musculus, 120 h) greater than 4 µM.

In the case of `O=C(CC1CCCCC1)Nc1cc(NCc2cc(-c3cc4cccnc4[nH]3)ccn2)ccc1F` [Compound 8oj, N-(5-(((4-(1H-Pyrrolo[2,3-b]pyridin-2-yl)pyridin-2-yl)methyl)amino)-2-fluorophenyl)-2-cyclohexylacetamide], the minimal effective concentration (NMP53^−/− cells; Mus musculus, 120 h) is reported as 0.5 µM and the minimal effective concentration (NMCdkn2a^ARF−/− cells; Mus musculus, 120 h) is reported as 1 µM.

`O=C(CC1CC1)Nc1cc(NCc2cc(-c3cc4cccnc4[nH]3)ccn2)ccc1F` [Compound 8ok, N-(5-(((4-(1H-Pyrrolo[2,3-b]pyridin-2-yl)pyridin-2-yl)methyl)amino)-2-fluorophenyl)-2-cyclopropylacetamide] was tested, and the minimal effective concentration (NMP53^−/− cells; Mus musculus, 120 h) was 0.5 µM and the minimal effective concentration (NMCdkn2a^ARF−/− cells; Mus musculus, 120 h) was 1 µM.

For `Cc1ccc(CCC(=O)Nc2cc(NCc3ccc(-c4cn[nH]c4)cc3)ccc2F)o1` [Compound 106h, N-(5-((4-(1H-Pyrazol-4-yl)benzyl)amino)-2-fluorophenyl)-3-(5-methylfuran-2-yl)propanamide], the minimal effective concentration (NMP53^−/− cells; Mus musculus, 120 h) was 0.25 µM and the minimal effective concentration (NMCdkn2a^ARF−/− cells; Mus musculus, 120 h) was 2 µM.

`O=C(CCc1ccc[nH]1)Nc1cc(NCc2ccc(-c3cn[nH]c3)cc2)ccc1F` [Compound 106q, N-(5-((4-(1H-Pyrazol-4-yl)benzyl)amino)-2-fluorophenyl)-3-(1H-pyrrol-2-yl)propanamide] showed a minimal effective concentration (NMP53^−/− cells; Mus musculus, 120 h) of 1 to 2 µM and a minimal effective concentration (NMCdkn2a^ARF−/− cells; Mus musculus, 120 h) greater than 4 µM.

Work on `Cn1cc(-c2ccc(CNc3ccc(F)c(NC(=O)CCC4CCCO4)c3)cc2)cn1` (stereo not drawn) [Compound 107g, N-(2-fluoro-5-((4-(1-methyl-1H-pyrazol-4-yl)benzyl)amino)phenyl)-3-(tetrahydrofuran-2-yl)propanamide] yielded a minimal effective concentration (NMP53^−/− cells; Mus musculus, 120 h) of 0.125 µM and a minimal effective concentration (NMCdkn2a^ARF−/− cells; Mus musculus, 120 h) of 2 µM.

`Cc1ccc(CCC(=O)Nc2cc(NCc3ccc(-c4cnn(C)c4)cc3)ccc2F)o1` [Compound 107h, N-(2-fluoro-5-((4-(1-methyl-1H-pyrazol-4-yl)benzyl)amino)phenyl)-3-(5-methylfuran-2-yl)propanamide] was tested, and the minimal effective concentration (NMP53^−/− cells; Mus musculus, 120 h) was 0.125 µM and the minimal effective concentration (NMCdkn2a^ARF−/− cells; Mus musculus, 120 h) was 1 µM.

`Cn1cc(-c2ccc(CNc3ccc(F)c(NC(=O)Cc4ccco4)c3)cc2)cn1` [Compound 107m, N-(2-fluoro-5-((4-(1-methyl-1H-pyrazol-4-yl)benzyl)amino)phenyl)-2-(furan-2-yl)acetamide] was tested, and the minimal effective concentration (NMP53^−/− cells; Mus musculus, 120 h) was 0.125 µM and the minimal effective concentration (NMCdkn2a^ARF−/− cells; Mus musculus, 120 h) was 16 µM.

In the case of `Cn1cc(-c2ccc(CNc3ccc(F)c(NC(=O)CCc4ccc[nH]4)c3)cc2)cn1` [Compound 107q, N-(2-fluoro-5-((4-(1-methyl-1H-pyrazol-4-yl)benzyl)amino)phenyl)-3-(1H-pyrrol-2-yl)propanamide], the minimal effective concentration (NMP53^−/− cells; Mus musculus, 120 h) is reported as 0.5 to 1 µM and the minimal effective concentration (NMCdkn2a^ARF−/− cells; Mus musculus, 120 h) is reported as 4 µM.

`O=C(CCc1ccco1)Nc1cc(NCc2ccc(-c3cn[nH]c3)cc2)ccc1Cl` [Compound 113a, N-(5-((4-(1H-Pyrazol-4-yl)benzyl)amino)-2-chlorphenyl)-3-(furan-2-yl)propanamide] was tested, and the minimal effective concentration (NMP53^−/− cells) was 0.5 µM and the minimal effective concentration (NMCdkn2a^ARF−/− cells) was greater than 1 µM.

For `Cn1cc(-c2ccc(COc3ccc(F)c(NC(=O)CCc4ccccc4)c3)cc2)cn1` [Compound 124, N-(2-fluoro-5-((4-(1-methyl-1H-pyrazol-4-yl)benzyl)oxy)phenyl)-3-phenylpropanamide], the minimal effective concentration (NMP53^−/− cells; Mus musculus, 120 h) was 0.25 µM and the minimal effective concentration (NMCdkn2a^ARF−/− cells; Mus musculus, 120 h) was greater than 1 µM.

In the case of `COc1cc(CNc2ccc(F)c(NC(=O)CCc3ccco3)c2)ccc1-c1cn[nH]c1` [Compound 127b, N-(2-fluoro-5-((3-methoxy-4-(1H-pyrazol-4-yl)benzyl)amino)phenyl)-3-(furan-2-yl)propanamide], the minimal effective concentration (NMP53^−/− cells; Mus musculus, 120 h) is reported as 0.25 µM and the minimal effective concentration (NMCdkn2a^ARF−/− cells; Mus musculus, 120 h) is reported as greater than 1 µM.

`O=C(CCc1ccco1)Nc1cc(NCc2ccc(-c3cn[nH]c3)cc2F)ccc1F` [Compound 127c, N-(2-fluoro-5-((2-fluoro-4-(1H-pyrazol-4-yl)benzyl)amino)phenyl)-3-(furan-2-yl)propanamide] was tested, and the minimal effective concentration (NMP53^−/− cells; Mus musculus, 120 h) was 0.125 µM and the minimal effective concentration (NMCdkn2a^ARF−/− cells; Mus musculus, 120 h) was 0.5 to 1 µM.

Work on `COc1cc(-c2cn[nH]c2)ccc1CNc1ccc(F)c(NC(=O)CCc2ccco2)c1` [Compound 127d, N-(2-fluoro-5-((2-methoxy-4-(1H-pyrazol-4-yl)benzyl)amino)phenyl)-3-(furan-2-yl)propanamide] yielded a minimal effective concentration (NMP53^−/− cells; Mus musculus, 120 h) of 0.25 µM and a minimal effective concentration (NMCdkn2a^ARF−/− cells; Mus musculus, 120 h) of 2 µM.

Work on `O=C(CCc1ccco1)Nc1cc(NCc2ccc(-c3cn[nH]c3)nc2)ccc1F` [Compound 127e, N-(5-(((6-(1H-Pyrazol-4-yl)pyridin-3-yl)methyl)amino)-2-fluorophenyl)-3-(furan-2-yl)-propanamide] yielded a minimal effective concentration (NMP53^−/− cells; Mus musculus, 120 h) of 0.5 µM and a minimal effective concentration (NMCdkn2a^ARF−/− cells; Mus musculus, 120 h) greater than 2 µM.

`Cn1cc(-c2ccc(CNc3ccc(F)c(NC(=O)CCc4ccco4)c3)cc2F)cn1` [Compound 128a, N-(2-fluoro-5-((3-fluoro-4-(1-methyl-1H-pyrazol-4-yl)benzyl)amino)phenyl)-3-(furan-2-yl)propanamide] was tested, and the minimal effective concentration (NMP53^−/− cells; Mus musculus, 120 h) was 0.032 µM and the minimal effective concentration (NMCdkn2a^ARF−/− cells; Mus musculus, 120 h) was 0.125 to 0.25 µM.

For `COc1cc(CNc2ccc(F)c(NC(=O)CCc3ccco3)c2)ccc1-c1cnn(C)c1` [Compound 128b, N-(2-fluoro-5-((3-methoxy-4-(1-methyl-1H-pyrazol-4-yl)benzyl)amino)phenyl)-3-(furan-2-yl)propanamide], the minimal effective concentration (NMP53^−/− cells; Mus musculus, 120 h) was 0.062 µM and the minimal effective concentration (NMCdkn2a^ARF−/− cells; Mus musculus, 120 h) was greater than 0.5 µM.

`Cn1cc(-c2ccc(CNc3ccc(F)c(NC(=O)CCc4ccco4)c3)c(F)c2)cn1` [Compound 128c, N-(2-fluoro-5-((2-fluoro-4-(1-methyl-1H-pyrazol-4-yl)benzyl)amino)phenyl)-3-(furan-2-yl)propanamide] showed a minimal effective concentration (NMP53^−/− cells; Mus musculus, 120 h) of 0.125 µM and a minimal effective concentration (NMCdkn2a^ARF−/− cells; Mus musculus, 120 h) of 0.5 to 1 µM.

`COc1cc(-c2cnn(C)c2)ccc1CNc1ccc(F)c(NC(=O)CCc2ccco2)c1` [Compound 128d, N-(2-fluoro-5-((2-methoxy-4-(1-methyl-1H-pyrazol-4-yl)benzyl)amino)phenyl)-3-(furan-2-yl)propanamide] gave a minimal effective concentration (NMP53^−/− cells; Mus musculus, 120 h) of 0.031 µM and a minimal effective concentration (NMCdkn2a^ARF−/− cells; Mus musculus, 120 h) greater than 0.5 µM.

`Cn1cc(-c2ccc(CNc3ccc(F)c(NC(=O)CCc4ccco4)c3)cn2)cn1` [Compound 128e, N-(2-fluoro-5-(((6-(1-methyl-1H-pyrazol-4-yl)pyridin-3-yl)methyl)amino)phenyl)-3-(furan-2-yl)propanamide] showed a minimal effective concentration (NMP53^−/− cells; Mus musculus, 120 h) of 0.25 µM and a minimal effective concentration (NMCdkn2a^ARF−/− cells; Mus musculus, 120 h) greater than 2 µM.

Compound `Cn1cc(-c2ccc(CNc3ccc(F)c(NC(=O)CCc4ccccc4)c3)nc2)cn1` [Compound 130, N-(2-fluoro-5-(((5-(1-methyl-1H-pyrazol-4-yl)pyridin-2-yl)methyl)amino)phenyl)-3-phenylpropanamide] has a minimal effective concentration (NMP53^−/− cells; Mus musculus, 120 h) of 0.5 µM and a minimal effective concentration (NMCdkn2a^ARF−/− cells; Mus musculus, 120 h) greater than 1 µM.
